From the supplement of paper PMC10307832

What was measured:
Experiment in all cases: relative viability (nuclei count vs DMSO), 5 days (fraction); higher = more cells survive
[1] = compound: C#Cc1cccc(Nc2ncnc3cc(OCCOC)c(OCCOC)cc23)c1 [Erlotinib] + O=C(c1cc(Cc2n[nH]c(=O)c3ccccc23)ccc1F)N1CCN(C(=O)C2CC2)CC1 [Olaparib] (partner 8 µM)
How it was run: (§1)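 Nuclei were stained with Hoechst during a one-step fixation (final 0.05% Triton X-100, 1% formaldehyde, 1 ug/ml Hoechst) carried out 5 days after dosing, then counted on 4× images. The cells, lung cancer lines in 1536-well plates, had been dosed by pin tool the day after seeding with one drug alone or a fixed anchor-drug dose plus five library-drug doses (not always all listed) in √10 steps. Relative viability is the nuclei count in treated wells divided by that in vehicle wells, and each value is the median of duplicate plates.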

[2] = compound: O=C(Nc1c[nH]nc1-c1nc2ccc(CN3CCOCC3)cc2[nH]1)NC1CC1 [AT9283] + CS(=O)(=O)CCNCc1ccc(-c2ccc3ncnc(Nc4ccc(OCc5cccc(F)c5)c(Cl)c4)c3c2)o1 [Lapatinib] (partner 2 µM)
How it was run: as §1

[3] = compound: O=C(Nc1c[nH]nc1-c1nc2ccc(CN3CCOCC3)cc2[nH]1)NC1CC1 [AT9283] + Nc1ncn([C@H]2C[C@H](O)[C@@H](CO)O2)c(=O)n1 [Decitabine] (partner 2 µM)
How it was run: as §1

[4] = compound: C#Cc1cccc(Nc2ncnc3cc(OCCOC)c(OCCOC)cc23)c1 [Erlotinib] + CC(=O)Nc1cccc(-n2c(=O)n(C3CC3)c(=O)c3c(Nc4ccc(I)cc4F)n(C)c(=O)c(C)c32)c1 [Trametinib] (partner 0.02 µM)
How it was run: as §1

[5] = compound: C#Cc1cccc(Nc2ncnc3cc(OCCOC)c(OCCOC)cc23)c1 [Erlotinib] + NC(=O)Nc1cc(-c2cccc(F)c2)sc1C(=O)N[C@H]1CCCNC1 [AZD7762] (partner 0.2 µM)
How it was run: as §1

**Q.** With NCI-H3122 as the cell line, how does the relative viability ([1]; first compound 0.02 µM) read?
**A.** 0.618

**Q.** What about the relative viability ([1]; first compound 0.2 µM) of the same cell line?
**A.** 0.652

**Q.** And the relative viability ([1]; first compound 0.6325 µM)?
**A.** 0.631

**Q.** And the relative viability ([1]; first compound 2 µM)?
**A.** 0.618

**Q.** And the relative viability ([2]; first compound 0.003 µM)?
**A.** 1.07

**Q.** And the relative viability ([2]; first compound 0.03 µM)?
**A.** 0.964

**Q.** What about the relative viability ([2]; first compound 0.09487 µM) of the same cell line?
**A.** 0.446

**Q.** And the relative viability ([2]; first compound 0.3 µM)?
**A.** 0.328

**Q.** And the relative viability ([3]; first compound 0.003 µM)?
**A.** 0.472

**Q.** What about the relative viability ([3]; first compound 0.03 µM) of the same cell line?
**A.** 0.397

**Q.** What about the relative viability ([3]; first compound 0.09487 µM) of the same cell line?
**A.** 0.296

**Q.** What about the relative viability ([3]; first compound 0.3 µM) of the same cell line?
**A.** 0.136

**Q.** And the relative viability ([4]; first compound 0.02 µM)?
**A.** 0.254

**Q.** What about the relative viability ([4]; first compound 0.2 µM) of the same cell line?
**A.** 0.271

**Q.** And the relative viability ([4]; first compound 0.6325 µM)?
**A.** 0.22

**Q.** What about the relative viability ([4]; first compound 2 µM) of the same cell line?
**A.** 0.246

**Q.** What about the relative viability ([5]; first compound 0.02 µM) of the same cell line?
**A.** 0.948

**Q.** What about the relative viability ([5]; first compound 0.2 µM) of the same cell line?
**A.** 1.05

**Q.** What about the relative viability ([5]; first compound 0.6325 µM) of the same cell line?
**A.** 1

**Q.** What does the source list for PC-3 [JPC-3]?
**A.** relative viability ([1]; first compound 0.02 µM): 1.05; relative viability ([1]; first compound 0.2 µM): 0.559; relative viability ([1]; first compound 0.6325 µM): 0.466; relative viability ([1]; first compound 2 µM): 0.434; relative viability ([2]; first compound 0.003 µM): 0.444; relative viability ([2]; first compound 0.03 µM): 0.436; relative viability ([2]; first compound 0.09487 µM): 0.422; relative viability ([2]; first compound 0.3 µM): 0.304; relative viability ([3]; first compound 0.003 µM): 0.837; relative viability ([3]; first compound 0.03 µM): 0.798; relative viability ([3]; first compound 0.09487 µM): 0.695; relative viability ([3]; first compound 0.3 µM): 0.541; relative viability ([4]; first compound 0.02 µM): 0.557; relative viability ([4]; first compound 0.2 µM): 0.427; relative viability ([4]; first compound 0.6325 µM): 0.337; relative viability ([4]; first compound 2 µM): 0.332; relative viability ([5]; first compound 0.02 µM): 0.639; relative viability ([5]; first compound 0.2 µM): 0.522; relative viability ([5]; first compound 0.6325 µM): 0.415; relative viability ([5]; first compound 2 µM): 0.356

**Q.** Which results are given for PC-14?
**A.** relative viability ([1]; first compound 0.02 µM): 0.272; relative viability ([1]; first compound 0.2 µM): 0.168; relative viability ([1]; first compound 0.6325 µM): 0.135; relative viability ([1]; first compound 2 µM): 0.106; relative viability ([2]; first compound 0.003 µM): 0.328; relative viability ([2]; first compound 0.03 µM): 0.393; relative viability ([2]; first compound 0.09487 µM): 0.203; relative viability ([2]; first compound 0.3 µM): 0.102; relative viability ([3]; first compound 0.003 µM): 0.199; relative viability ([3]; first compound 0.03 µM): 0.157; relative viability ([3]; first compound 0.09487 µM): 0.0721; relative viability ([3]; first compound 0.3 µM): 0.0727; relative viability ([4]; first compound 0.02 µM): 0.185; relative viability ([4]; first compound 0.2 µM): 0.0801; relative viability ([4]; first compound 0.6325 µM): 0.107; relative viability ([4]; first compound 2 µM): 0.0898; relative viability ([5]; first compound 0.02 µM): 0.206; relative viability ([5]; first compound 0.2 µM): 0.178; relative viability ([5]; first compound 0.6325 µM): 0.12; relative viability ([5]; first compound 2 µM): 0.13

**Q.** RERF-LC-KJ was tested. Which relative viability ([1]; first compound 0.02 µM) did it give?
**A.** 1

**Q.** What about the relative viability ([1]; first compound 0.2 µM) of the same cell line?
**A.** 0.86

**Q.** What about the relative viability ([1]; first compound 0.6325 µM) of the same cell line?
**A.** 0.994

**Q.** And the relative viability ([1]; first compound 2 µM)?
**A.** 0.852

**Q.** And the relative viability ([2]; first compound 0.003 µM)?
**A.** 0.809

**Q.** What about the relative viability ([2]; first compound 0.03 µM) of the same cell line?
**A.** 0.516

**Q.** What about the relative viability ([2]; first compound 0.09487 µM) of the same cell line?
**A.** 0.256

**Q.** And the relative viability ([2]; first compound 0.3 µM)?
**A.** 0.191

**Q.** What about the relative viability ([3]; first compound 0.003 µM) of the same cell line?
**A.** 0.746

**Q.** And the relative viability ([3]; first compound 0.03 µM)?
**A.** 0.477

**Q.** What about the relative viability ([3]; first compound 0.09487 µM) of the same cell line?
**A.** 0.282

**Q.** And the relative viability ([3]; first compound 0.3 µM)?
**A.** 0.224

**Q.** And the relative viability ([4]; first compound 0.02 µM)?
**A.** 0.913

**Q.** What about the relative viability ([4]; first compound 0.2 µM) of the same cell line?
**A.** 0.774

**Q.** And the relative viability ([4]; first compound 0.6325 µM)?
**A.** 0.799

**Q.** And the relative viability ([4]; first compound 2 µM)?
**A.** 0.613

**Q.** What about the relative viability ([5]; first compound 0.02 µM) of the same cell line?
**A.** 0.846

**Q.** And the relative viability ([5]; first compound 0.2 µM)?
**A.** 0.944

**Q.** What about the relative viability ([5]; first compound 0.6325 µM) of the same cell line?
**A.** 0.949

**Q.** What about the relative viability ([5]; first compound 2 µM) of the same cell line?
**A.** 0.608
